Key:
NCI-H1581 = test: cells; details: Homo sapiens, NCI-H1581, 72 h
Description: Antiproliferative activity against FGFR1 amplified human NCI-H1581 cells after 72 hrs by CCK8 or MTT assay

[1] = target: Fibroblast growth factor receptor 1 (Homo sapiens, UniProt P11362)
Description: Inhibition of recombinant FGFR1 (unknown origin) using poly (Glu,Tyr) 4:1 as substrate after 60 mins by ELISA

Huh-7 = test: cells; details: Homo sapiens, Huh-7, 72 h
Description: Antiproliferative activity against FGF19/FGFR4 expressing human HuH7 cells after 72 hrs by CCK8 or MTT assay

RT-112 = test: cells; details: Homo sapiens, RT-112, 72 h
Description: Antiproliferative activity against FGFR3 amplified human RT112 cells after 72 hrs by CCK8 or MTT assay

BaF3 [2] = test: cells; details: Mus musculus, BaF3, 72 h
Description: Antiproliferative activity against mouse BAF3 cells expressing TEL-fused FGFR4 kinase after 72 hrs by CCK8 or MTT assay

BaF3 [3] = test: cells; details: Mus musculus, BaF3, 72 h; remark: listed apart in the source
Description: Antiproliferative activity against mouse BAF3 cells expressing TEL-fused KDR kinase after 72 hrs by CCK8 or MTT assay

[4] = target: Fibroblast growth factor receptor 4 (Homo sapiens, UniProt P22455); test: Inhibition of recombinant FGFR4 (unknown origin) using poly (Glu,Tyr) 4:1 as substrate after 60 mins by ELISA
Sequence of Fibroblast growth factor receptor 4 (P22455 whole entry): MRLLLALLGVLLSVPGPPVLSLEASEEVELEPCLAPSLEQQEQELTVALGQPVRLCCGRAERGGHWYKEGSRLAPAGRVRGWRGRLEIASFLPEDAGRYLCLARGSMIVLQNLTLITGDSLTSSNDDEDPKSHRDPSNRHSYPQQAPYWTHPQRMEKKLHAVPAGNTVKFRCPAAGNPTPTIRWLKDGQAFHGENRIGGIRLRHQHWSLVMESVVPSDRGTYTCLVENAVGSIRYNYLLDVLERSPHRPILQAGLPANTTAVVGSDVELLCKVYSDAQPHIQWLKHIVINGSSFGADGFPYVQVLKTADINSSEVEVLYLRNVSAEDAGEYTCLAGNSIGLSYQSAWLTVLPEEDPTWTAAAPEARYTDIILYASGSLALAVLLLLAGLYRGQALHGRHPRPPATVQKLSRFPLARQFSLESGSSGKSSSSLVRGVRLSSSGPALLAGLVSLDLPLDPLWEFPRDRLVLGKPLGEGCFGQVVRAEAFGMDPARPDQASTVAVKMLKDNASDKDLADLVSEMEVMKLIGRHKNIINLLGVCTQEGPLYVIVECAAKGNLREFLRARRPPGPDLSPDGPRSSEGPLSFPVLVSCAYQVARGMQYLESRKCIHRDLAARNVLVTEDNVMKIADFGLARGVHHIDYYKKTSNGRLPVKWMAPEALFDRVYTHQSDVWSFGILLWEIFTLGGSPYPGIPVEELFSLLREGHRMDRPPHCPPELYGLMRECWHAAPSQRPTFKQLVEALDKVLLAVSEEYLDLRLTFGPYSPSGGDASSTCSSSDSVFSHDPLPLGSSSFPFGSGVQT

OPM-2 = test: cells; details: Homo sapiens, OPM-2, 72 h
Description: Antiproliferative activity against FGFR3 amplified human OPM2 cells after 72 hrs by CCK8 or MTT assay

Sequence of Fibroblast growth factor receptor 1 (P11362 whole entry): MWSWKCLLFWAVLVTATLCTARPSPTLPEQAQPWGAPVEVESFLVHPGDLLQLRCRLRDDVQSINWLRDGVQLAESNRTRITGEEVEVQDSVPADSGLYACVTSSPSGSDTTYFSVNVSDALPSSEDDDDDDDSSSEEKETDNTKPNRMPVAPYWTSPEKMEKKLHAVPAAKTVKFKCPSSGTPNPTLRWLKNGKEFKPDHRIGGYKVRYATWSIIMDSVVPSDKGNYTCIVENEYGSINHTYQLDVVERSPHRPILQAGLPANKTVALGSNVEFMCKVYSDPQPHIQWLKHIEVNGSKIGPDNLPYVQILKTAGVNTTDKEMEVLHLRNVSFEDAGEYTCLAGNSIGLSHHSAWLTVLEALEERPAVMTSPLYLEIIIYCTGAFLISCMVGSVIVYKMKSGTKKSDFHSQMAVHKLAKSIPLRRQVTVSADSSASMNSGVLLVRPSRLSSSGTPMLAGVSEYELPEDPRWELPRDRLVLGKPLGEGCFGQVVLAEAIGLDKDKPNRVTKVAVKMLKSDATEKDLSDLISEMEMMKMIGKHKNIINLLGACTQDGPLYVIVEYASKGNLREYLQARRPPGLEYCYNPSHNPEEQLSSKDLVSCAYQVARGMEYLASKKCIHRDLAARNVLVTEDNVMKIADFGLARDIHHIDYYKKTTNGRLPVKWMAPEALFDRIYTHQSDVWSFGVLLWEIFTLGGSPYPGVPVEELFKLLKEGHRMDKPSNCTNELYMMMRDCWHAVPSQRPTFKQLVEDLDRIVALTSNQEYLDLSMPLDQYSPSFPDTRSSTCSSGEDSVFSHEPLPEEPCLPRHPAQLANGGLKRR

In the case of `C=CC(=O)N1CCC(n2cc(-c3cc4cc(C)cc(OC)c4s3)c3c(N)nc(C)nc32)C1` (stereo unspecified), the IC50 (NCI-H1581) is reported as 254 nM.

With `C=CS(=O)(=O)N1CC(n2cc(-c3cc4cc(C)cc(OC)c4s3)c3c(N)ncnc32)C1` the IC50 [1] was under 0.3 nM and the IC50 (NCI-H1581) was over 1000 nM.

`CCC(=O)N1CCC(n2cc(-c3cc4cc(C)cc(OC)c4s3)c3c(N)ncnc32)C1` (stereo unspecified) was tested, and the IC50 (NCI-H1581) was 49.7 nM.

In the case of `CCN1CCN(c2ccc(Nc3cc(N(C)C(=O)Nc4c(Cl)c(OC)cc(OC)c4Cl)ncn3)cc2)CC1` [INFIGRATINIB], the IC50 (Huh-7) is reported as 57.2 nM, the IC50 (RT-112) is reported as under 0.5 nM and the IC50 (BaF3 [2]) is reported as 133 nM. It also gave an IC50 (BaF3 [3]) of 3340 nM.

With `C=CC(=O)N1CCC(n2cc(-c3cc4cc(C)cc(OC)c4s3)c3c(N)ncnc32)C1` (stereo unspecified) the IC50 [4] was 6.2 nM, the IC50 [1] was under 0.3 nM and the IC50 (NCI-H1581) was under 0.3 nM.

`C=C(CN(C)C)C(=O)N1CCC(n2cc(-c3cc4cc(C)cc(OC)c4s3)c3c(N)ncnc32)C1` (stereo unspecified) was tested, and the IC50 (NCI-H1581) was under 0.3 nM.

`C=CC(=O)N1CC(n2cc(-c3cc4cccc(OC)c4s3)c3c(N)ncnc32)C1` showed an IC50 (NCI-H1581) of under 0.3 nM.

Compound `C=CC(=O)N1CCC(n2cc(-c3cc4cc(C)cc(OC)c4s3)c3c(NC)ncnc32)C1` (stereo unspecified) has an IC50 [4] of over 100 nM and an IC50 [1] of over 100 nM.

For `C=CC(=O)N1CCCC1Cn1cc(-c2cc3cc(C)cc(OC)c3s2)c2c(N)ncnc21` (stereo unspecified), the IC50 (NCI-H1581) was under 0.3 nM.

`C=CC(=O)N1CC(n2cc(-c3cc4cc(C)cc(OC)c4s3)c3c(N)nc(Cl)nc32)C1` showed an IC50 (NCI-H1581) of 207 nM.

In the case of `C=CC(=O)N1CCC(n2cc(-c3cc4cc(C)cc(OC)c4s3)c3c(N)ncnc32)CC1`, the IC50 (NCI-H1581) is reported as under 0.3 nM.

For `C=CC(=O)N1CCC(n2cc(-c3cc(OC)cc(OC)c3)c3c(N)ncnc32)C1` (stereo unspecified), the IC50 (NCI-H1581) was 90.2 nM.

`COc1cc(C)cc2cc(-c3cn(C4CCN(C(=O)/C=C/CN(C)C)C4)c4ncnc(N)c34)sc12` (stereo unspecified) was tested, and the IC50 (NCI-H1581) was under 0.3 nM.

`C=CC(=O)N1CCC(n2cc(-c3cc4cccc(OC)c4s3)c3c(N)ncnc32)C1` (stereo unspecified) was tested, and the IC50 (NCI-H1581) was under 0.3 nM.

In the case of `COc1cc(CCc2cc(NC(=O)c3ccc(N4C[C@@H](C)N[C@@H](C)C4)cc3)n[nH]2)cc(OC)c1` [FEXAGRATINIB], the IC50 (OPM-2) is reported as 83.6 nM, the IC50 (Huh-7) is reported as 284 nM and the IC50 (RT-112) is reported as 36.4 nM. It also gave an IC50 (BaF3 [2]) of 339 nM and an IC50 (BaF3 [3]) of 544 nM.

Reference: ChEMBL document CHEMBL4382193, “Discovery of Potent Irreversible Pan-Fibroblast Growth Factor Receptor (FGFR) Inhibitors” (J Med Chem, 2018)
